Our source for the IC50 values is US20140179664A1, “Heterocyclyl Pyrimidine Analogues As JAK Inhibitors” (Cellzome Limited, priority 2011, published 2014).

For orientation: IC50 means the midpoint of a concentration-inhibition curve.

A value given as a limit tells only on which side of the number the result lay.

Holding throughout (type): binding
One assay has as its target T1, JAK2 (Homo sapiens, UniProt O60674).
T1 construct: endogenous in cells; host or cells: Molt4 (ATCC CRL-1582) and Ramos (ATCC CRL-1596), mixed lysate 1:2
In words: Kinobeads assay, JAK2. Particulars: mixed Molt4/Ramos lysate, read-out: Inhibition values (IC50) JAK2. Put shortly:
(§1)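 IC50s come from capture competition: compound at various concentrations versus an immobilized aminopyrido-pyrimidine ligand for kinases in 1:2 Molt4/Ramos lysate (10 mg/mL), 3 h in a cold room. Captured JAK-family kinases were measured by specific-antibody dot blot with Odyssey infrared detection.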

A further assay has as its target T2, JAK3 (Homo sapiens, UniProt P52333).
T2 construct: endogenous in cells; host or cells: Molt4 (ATCC CRL-1582) and Ramos (ATCC CRL-1596), mixed lysate 1:2
T2 sequence (P52333 1-1124): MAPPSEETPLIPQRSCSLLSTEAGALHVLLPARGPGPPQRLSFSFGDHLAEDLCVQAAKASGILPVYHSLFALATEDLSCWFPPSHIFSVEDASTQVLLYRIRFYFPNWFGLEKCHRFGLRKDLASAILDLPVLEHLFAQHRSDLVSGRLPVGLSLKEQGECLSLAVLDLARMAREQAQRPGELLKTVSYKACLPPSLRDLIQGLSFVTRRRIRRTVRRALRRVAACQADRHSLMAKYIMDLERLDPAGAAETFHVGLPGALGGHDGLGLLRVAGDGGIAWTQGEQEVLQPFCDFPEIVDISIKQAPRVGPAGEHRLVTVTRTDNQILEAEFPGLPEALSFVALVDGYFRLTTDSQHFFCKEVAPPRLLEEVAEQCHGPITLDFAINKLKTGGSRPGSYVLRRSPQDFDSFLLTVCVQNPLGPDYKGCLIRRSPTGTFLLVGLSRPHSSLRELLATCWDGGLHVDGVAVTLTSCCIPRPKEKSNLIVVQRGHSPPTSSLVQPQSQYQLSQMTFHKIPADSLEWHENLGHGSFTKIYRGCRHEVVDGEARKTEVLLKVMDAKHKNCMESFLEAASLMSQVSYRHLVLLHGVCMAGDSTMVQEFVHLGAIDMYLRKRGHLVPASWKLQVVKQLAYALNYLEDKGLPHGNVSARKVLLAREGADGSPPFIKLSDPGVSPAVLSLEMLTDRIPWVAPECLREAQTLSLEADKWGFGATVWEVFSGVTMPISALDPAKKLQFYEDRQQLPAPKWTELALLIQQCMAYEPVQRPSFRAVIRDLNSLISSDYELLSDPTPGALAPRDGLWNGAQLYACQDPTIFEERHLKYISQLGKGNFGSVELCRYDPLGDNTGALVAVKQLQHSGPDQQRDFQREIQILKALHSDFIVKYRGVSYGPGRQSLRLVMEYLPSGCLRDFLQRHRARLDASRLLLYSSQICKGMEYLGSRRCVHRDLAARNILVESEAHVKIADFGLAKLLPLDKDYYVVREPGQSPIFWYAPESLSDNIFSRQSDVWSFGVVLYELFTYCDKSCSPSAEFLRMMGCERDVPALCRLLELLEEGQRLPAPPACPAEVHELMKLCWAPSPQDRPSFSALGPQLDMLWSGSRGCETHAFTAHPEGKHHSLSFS
The experiment in a line: Kinobeads assay, JAK3. Particulars: mixed Molt4/Ramos lysate, read-out: Inhibition values (IC50) JAK3. Put shortly: as §1

The target of a further assay is T3, TYK2 (Homo sapiens, UniProt P29597).
T3 construct: endogenous in cells; host or cells: Molt4 (ATCC CRL-1582) and Ramos (ATCC CRL-1596), mixed lysate 1:2
The experiment in a line: Kinobeads assay, TYK2. Particulars: mixed Molt4/Ramos lysate, read-out: Inhibition values (IC50) TYK2. In short, it runs like this:
as §1

T3 sequence (P29597 whole entry): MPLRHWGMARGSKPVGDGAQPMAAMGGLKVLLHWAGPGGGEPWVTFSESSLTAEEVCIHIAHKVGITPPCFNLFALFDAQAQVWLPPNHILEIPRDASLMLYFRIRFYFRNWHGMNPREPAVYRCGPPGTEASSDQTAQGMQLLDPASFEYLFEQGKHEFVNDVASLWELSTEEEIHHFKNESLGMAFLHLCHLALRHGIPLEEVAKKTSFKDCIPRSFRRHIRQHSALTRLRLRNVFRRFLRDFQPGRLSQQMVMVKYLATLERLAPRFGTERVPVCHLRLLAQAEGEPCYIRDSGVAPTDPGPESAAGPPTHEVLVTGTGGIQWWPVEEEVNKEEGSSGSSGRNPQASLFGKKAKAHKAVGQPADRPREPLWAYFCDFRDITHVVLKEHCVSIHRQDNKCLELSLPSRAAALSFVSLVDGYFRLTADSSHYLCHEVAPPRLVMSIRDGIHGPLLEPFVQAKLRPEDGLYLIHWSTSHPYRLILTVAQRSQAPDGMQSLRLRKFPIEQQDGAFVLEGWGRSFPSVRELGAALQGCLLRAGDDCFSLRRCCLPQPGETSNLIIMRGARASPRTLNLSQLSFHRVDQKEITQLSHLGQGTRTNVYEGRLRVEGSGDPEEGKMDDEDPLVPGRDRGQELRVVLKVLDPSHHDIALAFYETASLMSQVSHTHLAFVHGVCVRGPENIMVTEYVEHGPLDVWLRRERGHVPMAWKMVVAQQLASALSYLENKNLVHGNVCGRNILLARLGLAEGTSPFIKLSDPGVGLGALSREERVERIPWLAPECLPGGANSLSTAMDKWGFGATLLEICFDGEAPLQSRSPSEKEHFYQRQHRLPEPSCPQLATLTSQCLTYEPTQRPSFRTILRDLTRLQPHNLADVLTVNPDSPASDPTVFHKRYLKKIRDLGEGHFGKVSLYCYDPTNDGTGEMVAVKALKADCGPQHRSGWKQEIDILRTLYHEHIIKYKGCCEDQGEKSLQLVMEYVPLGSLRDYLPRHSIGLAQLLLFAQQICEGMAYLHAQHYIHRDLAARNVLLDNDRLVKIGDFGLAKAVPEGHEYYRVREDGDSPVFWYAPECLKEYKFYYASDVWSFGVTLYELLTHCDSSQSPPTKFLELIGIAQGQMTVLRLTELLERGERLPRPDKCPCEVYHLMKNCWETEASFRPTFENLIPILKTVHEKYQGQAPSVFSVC
T1 sequence (O60674 whole entry): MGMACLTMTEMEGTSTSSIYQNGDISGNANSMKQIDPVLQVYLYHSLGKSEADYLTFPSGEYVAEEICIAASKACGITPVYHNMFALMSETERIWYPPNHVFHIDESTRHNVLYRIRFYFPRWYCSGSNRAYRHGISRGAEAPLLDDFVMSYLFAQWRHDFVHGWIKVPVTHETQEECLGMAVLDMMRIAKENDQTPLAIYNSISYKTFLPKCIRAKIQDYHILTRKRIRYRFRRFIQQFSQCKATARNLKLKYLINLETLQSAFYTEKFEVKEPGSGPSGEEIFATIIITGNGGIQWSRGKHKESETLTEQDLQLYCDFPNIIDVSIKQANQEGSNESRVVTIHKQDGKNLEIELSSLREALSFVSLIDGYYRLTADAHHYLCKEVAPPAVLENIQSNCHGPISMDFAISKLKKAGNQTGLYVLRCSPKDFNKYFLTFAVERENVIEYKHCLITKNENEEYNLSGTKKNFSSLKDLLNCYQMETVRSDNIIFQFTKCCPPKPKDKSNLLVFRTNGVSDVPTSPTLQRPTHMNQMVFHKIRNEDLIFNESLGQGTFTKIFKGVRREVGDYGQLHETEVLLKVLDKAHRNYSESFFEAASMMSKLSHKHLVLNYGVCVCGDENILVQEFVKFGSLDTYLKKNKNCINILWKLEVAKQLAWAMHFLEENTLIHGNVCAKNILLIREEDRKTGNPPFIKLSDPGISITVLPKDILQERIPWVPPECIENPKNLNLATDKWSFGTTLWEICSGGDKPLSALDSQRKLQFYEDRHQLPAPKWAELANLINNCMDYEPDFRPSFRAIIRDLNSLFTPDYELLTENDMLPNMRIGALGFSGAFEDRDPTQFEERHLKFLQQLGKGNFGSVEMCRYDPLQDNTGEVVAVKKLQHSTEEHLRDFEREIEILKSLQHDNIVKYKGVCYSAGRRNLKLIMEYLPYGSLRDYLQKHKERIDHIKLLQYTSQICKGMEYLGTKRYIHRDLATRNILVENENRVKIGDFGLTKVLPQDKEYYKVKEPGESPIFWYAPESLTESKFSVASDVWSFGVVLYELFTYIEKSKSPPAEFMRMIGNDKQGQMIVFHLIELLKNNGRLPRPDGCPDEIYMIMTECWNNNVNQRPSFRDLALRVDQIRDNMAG

As to `Cn1cc(Nc2ncc(Cl)c(NC(CO)c3ccccc3)n2)cn1` (stereo not drawn) [Compound 1], the half-maximal inhibitory concentration (IC50) was at least 10000 nM at JAK2, below 100 nM at JAK3 and 1000 to 10000 nM at TYK2.

Turning to `Cn1cc(Nc2ncc(F)c(NC(CO)c3ccccc3)n2)cn1` (stereo not drawn) [Compound 2], the IC50 was at least 10000 nM on JAK2, 100 to 1000 nM at JAK3 and 1000 to 10000 nM at TYK2.

For the compound `Cn1ccc(Nc2ncc(Cl)c(N[C@H](CO)c3ccccc3)n2)n1` [Compound 11], the IC50 is at least 10000 nM at JAK2, 100 to 1000 nM at JAK3 and at least 10000 nM at TYK2.

As for `Cc1cnc(Nc2cnn(CCO)c2)nc1NC(CO)c1ccccc1` (stereo not drawn) [Compound 12], the IC50 is at least 10000 nM at JAK2, 100 to 1000 nM on JAK3 and 1000 to 10000 nM on TYK2.

Regarding `O=C(c1cc(Nc2ncc(Cl)c(N[C@H](CO)c3ccccc3)n2)c[nH]1)N1CCOCC1` [Compound 13], the IC50 at JAK2 was 100 to 1000 nM; on JAK3, below 100 nM; on TYK2, 100 to 1000 nM.

On to `Cn1cc(Nc2ncc(Cl)c(NC(CO)Cc3ccccc3)n2)cn1` (stereo not drawn) [Compound 14], for which the figures for the IC50 on JAK2, on JAK3 and at TYK2 were 1000 to 10000 nM, 100 to 1000 nM and 1000 to 10000 nM, respectively.

Regarding `COC(=O)C(Nc1nc(Nc2cnn(CCO)c2)ncc1Cl)c1ccccc1` (stereo not drawn) [Compound 15], the IC50 at JAK2 is at least 10000 nM; on JAK3, 100 to 1000 nM; at TYK2, 1000 to 10000 nM.

For `COC(=O)C(Nc1nc(Nc2cnn(C)c2)ncc1Cl)c1ccccc1` (stereo not drawn) [Compound 16], the IC50 at JAK2 was at least 10000 nM; on JAK3 it was 100 to 1000 nM; at TYK2 it was 1000 to 10000 nM.

On to `O=C(O)C(Nc1nc(Nc2cnn(CCO)c2)ncc1Cl)c1ccccc1` (stereo not drawn) [Compound 17], for which the IC50 at JAK2 was at least 10000 nM; at JAK3, 100 to 1000 nM; on TYK2, at least 10000 nM.

For the compound `Cn1cc(Nc2ncc(Cl)c(NC(C(=O)O)c3ccccc3)n2)cn1` (stereo not drawn) [Compound 18], the figures for the IC50 at JAK2, on JAK3 and on TYK2 were 1000 to 10000 nM, below 100 nM and 1000 to 10000 nM, respectively.

Consider `OCCn1cc(Nc2ncc(Cl)c(NC(CO)Cc3ccccc3)n2)cn1` (stereo not drawn) [Compound 19], for which the half-inhibitory concentration (IC50) was 1000 to 10000 nM at JAK2, below 100 nM on JAK3 and 1000 to 10000 nM on TYK2.

Regarding `CNC(=O)[C@@H](Nc1nc(Nc2cnn(C)c2)ncc1Cl)c1ccccc1` [Compound 20], the half-maximal inhibitory concentration (IC50) is at least 10000 nM on JAK2, 100 to 1000 nM on JAK3 and 1000 to 10000 nM on TYK2.

Regarding `CC(C)OC(=O)Cn1cc(Nc2ncc(Cl)c(N[C@H](CO)c3ccccc3)n2)cn1` [Compound 21], the values for the IC50 on JAK2, on JAK3 and on TYK2 were 1000 to 10000 nM, below 100 nM and 100 to 1000 nM, respectively.

As to `CCOC(=O)Cn1cc(Nc2ncc(Cl)c(N[C@H](CO)c3ccccc3)n2)cn1` [Compound 22], the IC50 was 1000 to 10000 nM at JAK2, below 100 nM at JAK3 and 100 to 1000 nM at TYK2.

As to `CNC(=O)Cn1cc(Nc2ncc(Cl)c(N[C@H](CO)c3ccccc3)n2)cn1` [Compound 23, (S)-2-(4-((5-chloro-4-((2-hydroxy-1-phenylethyl)amino)pyrimidin-2-yl)amino)-1H-pyrazol-1-yl)-N-methylacetamide], the half-inhibitory concentration (IC50) is 1000 to 10000 nM at JAK2, below 100 nM on JAK3 and 1000 to 10000 nM at TYK2.

Regarding `O=C(O)Cn1cc(Nc2ncc(Cl)c(N[C@H](CO)c3ccccc3)n2)cn1` [Compound 24], the IC50 on JAK2 was at least 10000 nM; on JAK3, below 100 nM; on TYK2 it was 1000 to 10000 nM.

As to `CN(C)C(=O)[C@@H](Nc1nc(Nc2cnn(C)c2)ncc1Cl)c1ccccc1` [Compound 25], the IC50 is at least 10000 nM on JAK2, 100 to 1000 nM at JAK3 and at least 10000 nM at TYK2.

Regarding `CN(C)C(=O)[C@@H](Nc1nc(Nc2cnn(CCO)c2)ncc1Cl)c1ccccc1` [Compound 26], the values for the 50% inhibitory concentration (IC50) on JAK2, on JAK3 and at TYK2 were 1000 to 10000 nM, below 100 nM and 1000 to 10000 nM, respectively.

For the compound `CCNC(=O)[C@@H](Nc1nc(Nc2cnn(CCO)c2)ncc1Cl)c1ccccc1` [Compound 27], the IC50 was at least 10000 nM on JAK2, below 100 nM on JAK3 and 1000 to 10000 nM at TYK2.
